Reference: PMC11446937, “Bacteria from the Amycolatopsis genus associated with a toxic bird secrete protective secondary metabolites” (Nature Communications, 2024)

Columns and labels:
[1] = test system: bacterial and fungal indicator strains; experiment: Disc-diffusion antimicrobial activity, indicator strains overall; type: cell-based; details: disc-diffusion assays of isolated compounds against indicator strains incl. K. rhizophila and C. albicans
Method: For more experimental details, see Supplementary Methods and Supplementary Tables 16–18.
Droplet-collapsing test of lipopetides.
Pure compounds were dissolved in water (final concentration 10 mM). Then, 20 µl of the solutions were placed on a hydrophobic surface (parafilm ‘M’). Tensioactive properties were determined by the observation of collapsed […]
33,34 Tween-20 (10 mM) was used as tensioactive positive control. For better visualization, 0.0025% crystal violet was added to the droplet, having no effect on the […]
Supplementary Figure 88. Droplet-collapsing assay testing the tensioactive properties of lipopeptides (n=3). […]
epidermidis DSM103867, as well as the skin pathogenic yeast C. albicans SC5314. […] Antimicrobial activity was determined by measuring the inhibition zone surrounding the disc in mm. […]
Pure compounds (1 mg/mL in DMSO or 50% MeOH) were tested for their antimicrobial activity against a variety of bacterial and fungal indicator strains: B. subtilis 6633 (Bs), S. aureus SG511 (Sa1), E. coli SG458 (Ec), P. aeruginosa K799/61 (Pa), S. aureus 134/94 (MRSA) (Sa2), E. faecalis 1528 (VRSA) (Ef), Mycobacterium vaccae 10670 (Mv), Sporobomyces salmonicolor 549 (Ss), C. albicans C.A. (Ca), and Penicillium notatum JP36 (Pn). […] Antimicrobial activity was determined by measuring the inhibition zone surrounding the disc in mm (n=3). […]

C. albicans C.A. = experiment: Disc-diffusion antimicrobial assay, clinically relevant indicator strains; type: cell-based; details: Suppl. Table 17; disc diffusion; 1 mg/mL in DMSO, 50 µl (50 µg) per disc; Amph B 10 µg/mL (DMSO/H2O); DMSO solvent control 0; n=3
Method: (§1) Disc-diffusion antimicrobial activity assays against clinically relevant indicator strains.
(§2) Pure compounds (1 mg/mL in DMSO or 50% MeOH) were tested for their antimicrobial activity against a variety of bacterial and fungal indicator strains: B. subtilis 6633 (Bs), S. aureus SG511 (Sa1), E. coli SG458 (Ec), P. aeruginosa K799/61 (Pa), S. aureus 134/94 (MRSA) (Sa2), E. faecalis 1528 (VRSA) (Ef), Mycobacterium vaccae 10670 (Mv), Sporobomyces salmonicolor 549 (Ss), C. albicans C.A. (Ca), and Penicillium notatum JP36 (Pn). On each disc, 50 µl compound solution (50 µg) were applied. Antimicrobial activity was determined by measuring the inhibition zone surrounding the disc in mm (n=3).
(§3) Bs: B. subtilis 663, Sa1: S. aureus SG511, Ec: E. coli SG458, Pa: P. aeruginosa K799/61, Sa2: S. aureus 134/94 (MRSA), Ef: E. faecalis 1528 (VRSA), Mv: M. vaccae 10670, Ss: S. salmonicolor 549, Ca: C. albicans C.A., Pn: P. notatum JP36. P: colonies in the inhibition zone, p: single colonies in the inhibition zone. A: no to low inhibition, n.t.: not tested.
(§4) B. subtilis 663, Sa1: S. aureus SG511, Ec: E. coli SG458, Ca: C. albicans C.A., P: colonies in the inhibition zone, […]

Penicillium notatum JP36 = experiment: as above; type: cell-based; details: Suppl. Table 17, 1 mg/mL in DMSO, 50 µl (50 µg) per disc, Amph B 10 µg/mL (DMSO/H2O), DMSO solvent control itself 12P, n=3
Method: as §1, §2, §3, §4

[2] = test system: Sporobomyces salmonicolor 549; experiment: as above; type: cell-based; details: Suppl. Table 17, 1 mg/mL in DMSO, 50 µl (50 µg) per disc, Amph B 10 µg/mL (DMSO/H2O), DMSO solvent control itself 13P, n=3
Method: as §1, §2, §3, §4

P. aeruginosa K799/61 = details: Suppl. Table 17; disc diffusion; 1 mg/mL in DMSO, 50 µl (50 µg) per disc; Cip 5 µg/mL (H2O/HCl); DMSO solvent control itself 12P; n=3
B. subtilis 6633 = experiment: Disc-diffusion antimicrobial assay, clinically relevant indicator strains; details: Suppl. Table 17, 1 mg/mL in DMSO, 50 µl (50 µg) per disc, Cip 5 µg/mL (H2O/HCl), DMSO solvent control itself 12P, n=3
S. aureus SG511 = experiment: as above; details: Suppl. Table 17, 1 mg/mL in DMSO, 50 µl (50 µg) per disc, Cip 5 µg/mL (H2O/HCl), DMSO solvent control itself 11P, n=3
E. coli SG458 = experiment: as above; details: Suppl. Table 17, 1 mg/mL in DMSO, 50 µl (50 µg) per disc, Cip 5 µg/mL (H2O/HCl), DMSO solvent control itself 12P, n=3
S. aureus 134/94 (MRSA) = experiment: as above; details: Suppl. Table 17, 1 mg/mL in DMSO, 50 µl (50 µg) per disc, Cip 5 µg/mL (H2O/HCl), DMSO solvent control 0, n=3
E. faecalis 1528 = experiment: as above; details: Suppl. Table 17, 1 mg/mL in DMSO, 50 µl (50 µg) per disc, Cip 5 µg/mL (H2O/HCl), DMSO solvent control itself 12p, n=3
[3] = test system: Mycobacterium vaccae 10670; experiment: as above; details: Suppl. Table 17, 1 mg/mL in DMSO, 50 µl (50 µg) per disc, Cip 5 µg/mL (H2O/HCl), DMSO solvent control itself 11P, n=3
B. licheniformis DSM13 = experiment: Disc-diffusion antimicrobial assay, ecologically relevant indicator strains; type: cell-based, Bacillus licheniformis; details: Suppl. Table 16, pure compounds 10 mg/mL in DMSO, 5 µl per disc, control Cip 5 µg/mL (HCl), DMSO control 0, n=1
K. rhizophila DSM11926 = experiment: as above; type: cell-based, Kocuria rhizophila; details: Suppl. Table 16, pure compounds 10 mg/mL in DMSO, 5 µl per disc, control Cip 5 µg/mL (HCl), DMSO control 0, n=1
[4] = test system: B. thuringiensis DSM104061; experiment: as above; type: cell-based, Bacillus thuringiensis; details: Suppl. Table 16, pure compounds 10 mg/mL in DMSO, 5 µl per disc, control Cip 5 µg/mL (HCl), DMSO control 0, n=1
P. monteilii DSM1388 = experiment: as above; type: cell-based, Pseudomonas monteilii; details: Suppl. Table 16, pure compounds 10 mg/mL in DMSO, 5 µl per disc, control Cip 5 µg/mL (HCl), DMSO control 0, n=1
C. albicans SC5314 = experiment: as above; type: cell-based, Candida albicans; details: Suppl. Table 16, pure compounds 10 mg/mL in DMSO, 5 µl per disc, control Amph B 10 µg/mL (DMSO/H2O), DMSO control 0, n=1
cruzain = experiment: Fluorimetric protease inhibition assay; type: biochemical, Trypanosoma cruzi; details: 200 µM, 10 min, mean ± standard deviation, n=3
cathepsin L = experiment: Fluorimetric protease inhibition assay; type: biochemical; details: 200 µM, 10 min, mean ± standard deviation, n=3
cathepsin B = experiment: Fluorimetric protease inhibition assay; type: biochemical; details: 200 µM, 10 min, mean ± standard deviation, n=3
DENV2 NS2B-NS3 = experiment: Fluorimetric protease inhibition assay; type: biochemical; details: 200 µM, 10 min, mean ± standard deviation, n=3
urokinase (uPA) = experiment: Fluorimetric protease inhibition assay; type: biochemical; details: 200 µM, 10 min, mean ± standard deviation, n=3
rhodesain = details: 200 µM
SARS-CoV2 Mpro = details: 200 µM; fluorimetric, 10 min; mean ± standard deviation, n=3
SARS-CoV PLpro = details: 200 µM; fluorimetric, 10 min; mean ± standard deviation, n=3
ZIKV NS2B-NS3 = details: 200 µM
sortase A (SrtA) = details: 200 µM

Row | Molecule | antimicrobial activity (in words) [1] | inhibition zone, Ca (C. albicans C.A.) [mm] | inhibition zone, Pn (Penicillium notatum JP36) | inhibition zone, Ss [2] | inhibition zone, Pa (P. aeruginosa K799/61) | inhibition zone, Bs (B. subtilis 6633) [mm] | inhibition zone, Sa1 (S. aureus SG511) [mm] | inhibition zone, Ec (E. coli SG458) | inhibition zone, Sa2 (S. aureus 134/94 (MRSA)) [mm] | inhibition zone, Ef (E. faecalis 1528) | inhibition zone, Mv [3] | inhibition zone, Bl (B. licheniformis DSM13) [mm] | inhibition zone, Kr (K. rhizophila DSM11926) [mm] | inhibition zone, Bt [4] [mm] | inhibition zone, Pm (P. monteilii DSM1388) [mm] | inhibition zone, Ca2 (C. albicans SC5314) [mm] | Protease inhibition rate, Cruzain (cruzain) [%] | Protease inhibition rate, Cathepsin L (cathepsin L) [%] | Protease inhibition rate, Cathepsin B (cathepsin B) [%] | Protease inhibition rate, DENV2 (DENV2 NS2B-NS3) [%] | also measured
1 | C[C@H]1CN2C(=O)/C=C/C=C/C=C/[C@@](C)(O)C(O[C@@H]3OC[C@@H](O)[C@H](O)[C@H]3N)\C=C/C=C/C=C/C=C\[C@@H]2[C@@H]1O (stereo partly shown) [Compound 8, ciromicin A, reference compound] | antifungal and antibacterial effects | – | – | – | – | – | – | – | – | – | – | – | – | – | – | – | – | – | – | – | –
2 | Demiguisin [Compound 7] | no antimicrobial effects | 0 | 0 mm | 0 mm | 0 mm | 0 | 0 | 0 mm | 0 | 0 mm | 0 mm | – | – | – | – | – | – | – | – | – | –
3 | Pachycephalamide E [Compound 5] | – | 0 | 14p | 19p | 17P | 0 | 0 | 15P | 0 | 13p | – | 0 | 7 | 0 | 0 | 0 | 43.80 ± 2.31 | 47.31 ± 2.53 | 47.52 ± 9.52 | 19.02 ± 6.12 | Protease inhibition rate, uPA (urokinase (uPA)): 0 ± 0%; Protease inhibition rate, Rhodesain (rhodesain): 48.22 ± 1.63; Protease inhibition rate, Mpro (SARS-CoV2) (SARS-CoV2 Mpro): 14.75 ± 7.06%; Protease inhibition rate, PLpro (SARS-CoV) (SARS-CoV PLpro): 0 ± 0%; Protease inhibition rate, ZIKV (ZIKV NS2B-NS3): 22.71 ± 1.47; Protease inhibition rate, SrtA (sortase A (SrtA)): 17.94 ± 1.28
4 | Pachycephalamide F [Compound 6] | – | 0 | 13p | 23p | 18P | 0 | 0 | 13P | 0 | 13p | 13p | 0 | 10 | 0 | 0 | 0 | 60.52 ± 3.73 | 58.30 ± 6.91 | 57.57 ± 11.52 | 18.47 ± 1.66 | Protease inhibition rate, uPA (urokinase (uPA)): 0 ± 0%; Protease inhibition rate, Rhodesain (rhodesain): 53.72 ± 0.31; Protease inhibition rate, Mpro (SARS-CoV2) (SARS-CoV2 Mpro): 6.92 ± 5.97%; Protease inhibition rate, PLpro (SARS-CoV) (SARS-CoV PLpro): 0 ± 0%; Protease inhibition rate, ZIKV (ZIKV NS2B-NS3): 22.62 ± 1.19; Protease inhibition rate, SrtA (sortase A (SrtA)): 20.39 ± 3.94
